Results taken from EP0883624B1, “TETRAETHER LIPIDS AND LIPOSOMES CONTAINING SAID LIPIDS, AND USE OF THE SAME” (Humatrix AG, priority 1996, dated 1997).

Experiment: Capacitance of a black lipid membrane
Type: physicochemical
Settings: Porengröße von 0,8 mm
Source text: Das Überspannen von Poren mit einer Lipidschicht ermöglicht nicht nur Einsatz solcher Systeme bei Separations- und Transportvorgängen (Dialyse, Umkehrosmose etc.), sondern auch im Bereich von Piezo- und Pyroelektrik, Mikrokondensatortechnik, nicht-linearer Optik und Biosensorik. Die Kapazität einer stabilen Black-Lipid-Membran aus TEL ist bei einer Porengröße von 0,8 mm 0,744 µF/cm^2.

## 2,3,2',3'-Tetra-O-dibiphytanyl-di-sn-glycerol-1'-β-gulosyl-1-phosphoryl-3"-sn-glycerols [TEL]
  Kapazität einer stabilen Black-Lipid-Membran: 0,744 µF/cm^2
